Measurements as given in patent US9944583B2, “Methods for ameliorating and preventing central nervous system inflammation” (THE REGENTS OF THE UNIVERSITY OF CALIFORNIA, priority 2007, dated 2018).

How the values were obtained:
[1] = tested on: PV-interneurons in mouse prefrontal cortex; assay: two-day ketamine treatment of mice: oxidized DHE, parvalbumin and GAD67 in prefrontal cortex; assay type: in vivo
Procedure: Animals and treatments. […] Male C57BL6 mice were obtained from Jackson Labs, Bar Harbor, Me., at 8-12 weeks and housed in our facility until 15 weeks when they were used for experiments. Ketamine (30 mg/kg) was applied intraperitoneally (IP) on two consecutive days at around 4 pm. DHE was applied 30 min after the last ketamine injection as described (19, 20). Briefly, two serial i.p. injections of freshly prepared dihydroethidium (27 mg/kg) are given at 30 minute intervals. Eighteen hours later, mice are anesthetized with inhaled halothane, and perfused intracardially with cold saline followed by 4% paraformaldehyde in PBS. The Nox inhibitor, apocynin (5 mg/kg/day) was given in the drinking water for a total of seven days, with an assumed intake of […] H2O/mouse/day, and ketamine was applied on the last two days. […] All animal studies were approved by the Animal Care Program at the University of California, San Diego, and are in accordance the PHS Guide for the Care and Use of Laboratory Animals, USDA Regulations, and the AVMA Panel on Euthanasia.
Immunohistochemistry: Brains were frontally sliced in a vibratome into 50 μm coronal sections encompassing the prefrontal cortex region (from Bregma 2.0 to 1.3). Sequential slices were processed for floating-section double immunohistochemistry for the detection of parvalbumin and GAD67. Antigen retrieval was performed by incubation of the slices in 1% sodium borohydride for 15 min as described (see reference 34, below), followed by washing in PBS and incubation in 10% normal goat serum in PBS for 16 h at 4° C. Primary antibodies (Calbindin: 1:5000: Calretinin: 1:2000; Parvalbumin: 1:3000, all rabbit polyclonals from Swant, Bellinzona, Switzerland. GAD67: 1:1000, from Chemicon-Millipore, Temecula, Calif.) were diluted in 2% normal goat serum in PBS and applied to the slices for 18 h at 4° C., after which slices were washed in PBS and incubated in a 1:1000 dilution of ALEXAFLUOR™ (Molecular Probes, Invitrogen, Carlsbad, Calif.) conjugated goat anti-rabbit (568) or goat anti-mouse (488) antibodies for 1 hr at room temperature (rt). Slices were washed in PBS and mounted sequentially in glass slides using […]™ (Vector Laboratories, Burlingame, Calif.), covered with a coverslip and allowed to dry for at least 24 h before confocal imaging.
Six slices were analyzed per animal.
Analysis of superoxide and/or hydrogen peroxide production by confocal imaging of in vivo dihydroethidium (DHE) oxidation. Mice will be injected intraperitoneally (i.p.) with dihydroethidium.

[2] = tested on: primary neuronal cultures; assay: IL-6 exposure of primary neuronal cultures: oxidized DHE, Nox2, parvalbumin and GAD67; assay type: cell-based, mouse
Procedure: IL-6 increases superoxide in a Nox dependent manner, and reduces GAD67 and parvalbumin in primary cultures, as summarized by the data graphically presented in FIG. 18. […] As before, dihydroethidium (DHE) was applied for the last hour (DHE detects superoxide and hydrogen peroxide). After fixation, ICC for PV and GAD67 was carried out as described in methods and quantitative confocal microscopy was utilized for fluorescence analysis.
DHE (1 μg/ml) was added during the last hour of treatment. Images show the increase in Nox2 immunoreactivity and oxidized DHE upon treatment with IL-6. Bar-graphs show the results of quantification of oxidized DHE and Nox2 fluorescence expressed as % of control. […] Data are means±SEM. Baseline intensities: DHE=21±4.7; Nox2=18.7±2.6.
Fluorescence confocal images of representative fields depicting the expression of parvalbumin (PV) and GAD67 in PV-interneurons. Bar-graph represents the quantification of fluorescence expressed as % of control. […] Data are means±SEM. Baseline intensities: PV=135±32; GAD67=114±26.
IL-6 potentiates ketamine effects on PV-interneurons. […] After fixation, ICC for GAD67 and parvalbumin was carried out as described by Kinney (2006) J. Neurosci. […] N=3 cultures per condition.

[3] = tested on: primary neuronal cultures; assay: DHE oxidation (superoxide and/or hydrogen peroxide production) in primary neuronal cultures exposed to ketamine; assay type: cell-based, mouse
[4] = tested on: synaptosomal mitochondria; assay: respiration of synaptosomal mitochondria (oximetry); conditions: apocynin 0-200 μM in synaptosomes
[5] = tested on: pyramidal layer of CA1 in the aged hippocampus; assay: in vivo superoxide production in CA1 of the aged hippocampus (DHE confocal imaging); set-up: species or system mouse; conditions: old mice; C3 by oral administration; apocynin
Procedure: Analysis of superoxide and/or hydrogen peroxide production by confocal imaging of in vivo dihydroethidium (DHE) oxidation. Mice will be injected intraperitoneally (i.p.) with dihydroethidium. Briefly, two serial i.p. injections of freshly prepared dihydroethidium (27 mg/kg) are given at 30 minute intervals. Eighteen hours later, mice are anesthetized with inhaled halothane, and are perfused intracardially with cold saline followed by 4% paraformaldehyde in PBS. Brains are removed and post-fixed in 2% paraformaldehyde for >24 h. Following fixation, brains are cut into 50 μm coronal sections and co-labeled with the appropriate primary and secondary antibodies for fluorescence visualization. […] First, an image is taken in the fluorescence channel of the ICC-fluorophor and then the channel is switched to image fluorescence from DHE oxidation. […] Using the image pairs for each field and MetaMorph software, an analyst blind to the group circles the outline of each ICC-labeled cell and then switches to the DHE oxidation image. The average fluorescence intensity for each cell of interest is logged, and values averaged to determine the mean fluorescence/cell.

NADPH oxidase (Nox) = assay: Nox activity in synaptosomes by NADPH-dependent oxygen consumption (oximetry); assay type: biochemical, mouse
Procedure: Synaptosomal preparations. […] Mice were euthanized by exposure to a lethal dose of inhaled halothane, followed by cervical dislocation. Brains were rapidly removed, cortices dissected and homogenized in 10 volumes of ice-cold isolation buffer (0.32M sucrose, 1 mM EDTA, 10 mM Tris-HCl buffer, pH 7.4, 10 mM glucose). The homogenate was centrifuged at 3100 rpm for 3 min at 4° C., and the supernatant collected, and the pellet was re-homogenized in half the volume of isolation buffer and centrifuged again. Synaptosomal were then isolated as described (see reference 30, below) modified as follows, the pooled supernatants were mixed with PERCOLL™ (Sigma, St. Louis, Mo.) to a final concentration of 15%, and then layered onto a step gradient of 23% and 40% PERCOLL™, and centrifuged at 16,000 rpm for 5 minutes at 4° C. The uppermost band was extracted, rinsed in isolation buffer, centrifuged and resuspended in synaptosomal buffer (120 mM NaCl, 4.7 mM KCl, 2.2 mM CaCl2, 1.2 mM MgCl2, 25 mM HEPES, 1.2 mM MgSO4, 1.2 mM KH2PO4, 10 mM glucose).
Oxygen consumption studies (oximetry). O2 consumption studies on synaptosomes are carried out. […] Studies were carried out to optimize the concentration of synaptosomal protein required, and to confirm stability and viability of synaptosomes and their mitochondria for up to 6 h.

[6] = apocynin 5 mg/kg/day 1 week in drinking water, C3 1.0 mg/kg/day one month by mini-pumps

COc1cc(C(C)=O)ccc1O [apocynin, 4-hydroxy-3-methoxyacetophenone]
effect on ketamine-induced increase in oxidized DHE in vivo [1, 6]: prevented | effect on ketamine-mediated loss of parvalbumin immunoreactivity in PV-interneurons in vivo [1, 6]: completely prevented | effect on ketamine-mediated decrease in parvalbumin and GAD67 immunoreactivity in PFC ([1]; apocynin in the drinking water): prevented | effect on IL-6 effects (DHE oxidation, GAD67 and parvalbumin) ([2]; apocynin 0.5 mM with IL-6 10 ng/ml, 24 h): prevented | effect on IL-6-induced superoxide production ([2]; apocynin added along with IL-6): eliminated | effect on Nox2 induction by IL-6 ([2]; apocynin added along with IL-6): not affected | effect on ketamine-mediated increase in oxidized DHE ([3]; co-exposure with ketamine 0.5 μM 24 h, muscimol 10 μM, C3 20 μM, apocynin 0.5 mM): significantly reduced | effect on ketamine-mediated increase in ROS / free radical production (DHE fluorescence) ([3]; ketamine with 1 μM C3 or 500 μM apocynin for 24 h): prevented | mitochondrial respiration [4]: did not affect | effect on elevated levels of superoxide in the pyramidal layer of CA1 in the aged hippocampus [5]: prevented | block of NADPH-induced O2 consumption (NADPH oxidase (Nox); 200 μM apocynin, synaptosomes, 5 mM NADPH): > 90% | effect on increased Nox activity in synaptosomes from ketamine treated animals (NADPH oxidase (Nox); apocynin added in vitro): inhibited
